Data taken from patent publication US20220088127A1, “TARGETING THE BAG FAMILY FOR THE TREATMENT OF NEURODEGENERATIVE DISEASE” (Temple University - of the Commonwealth System of Higher …, priority 2019, published 2022).
Peptide text beside a SMILES is read from it. * marks the point of attachment. Cbz = O=C(OCc1ccccc1)*

Test system: BAG3
Experiment: BAG3 protein level by Western blot
Type: cell-based, rat
Experimental: Dissociated cell cultures of hippocampal and cortical neurons were prepared using dissected E18 prenatal rat embryonic brains. After digestion in 0.25% trypsin solution, neurons were plated on tissue culture plates and slides pre-coated with poly-D-lysine (Sigma, St. Louis, Mo.) and laminin (Invitrogen 23017, USA). Cells were maintained 14 days prior to treatments. Neurons were transduced with Ad-Null (Vector Biolabs, Malvern, Pa.), Ad-Tat (made in-house), Ad-siBAG3 (Vector Biolabs, Malvern, Pa.) and Ad-BAG3 (Vector Biolabs, Malvern, Pa.) with MOI 1 to 4 or recombinant Tat protein (50 ng/ml, full length, 101 amino acids, Immunodiagnostics, MA). Tat bioactivity was verified by the LTR-luciferase assay. MG132 (5 μM) and Bafilomycin A 1 (50 nM, Sigma) were applied for 4 h prior to lysis to block proteasome and lysosomal autophagy, respectively.
Neuronal and mouse brain tissue lysates were prepared using RIPA lysis buffer (whole cell extract), Tris-Triton (soluble fraction) or 2% SDS in PBS (insoluble fraction), all containing protease inhibitor cocktail (Sigma-Aldrich, St. Louis, Mo.). Protein concentration was measured using Bio-Rad protein assay reagent (Bio-Rad, Hercules, Calif.). SDS-polyacrylamide gels, 10-12%, and nitrocellulose membranes (LI-COR, Inc., Lincoln, Nebr.) were used for electrophoretic protein separation and transfer, respectively. […]

Row | Structure (SMILES) | BAG3 levels in Tat-expressing neurons under proteasome inhibition (MG132 for 4 h on day 3 post-transduction) | BAG3 levels in Tat-expressing neurons under lysosomal inhibition (Bafilomycin A1)
1 | CC(C)C[C@@H](C=O)NC(=O)[C@H](CC(C)C)NC(=O)[C@H](CC(C)C)NC(=O)OCc1ccccc1 [MG132] (Cbz-Leu-Leu-Leu-aldehyde) | not altered | –
2 | CO/C1=C\C(C)=C\[C@@H](C)[C@@H](O)[C@@H](C)C/C(C)=C/C=C/[C@H](OC)[C@@H]([C@@H](C)[C@@H](O)[C@H](C)[C@@]2(O)C[C@@H](O)[C@H](C)[C@@H](C(C)C)O2)OC1=O [Baf A1, Bafilomycin A1] | – | no significant changes
